Data taken from US20240174631A1, “COMPOUNDS, COMPOSITIONS, AND METHODS FOR MODULATING FGF ACTIVITY” (Recovery Therapeutics, Inc., priority 2021, published 2024).

Tests used:
[1] = biological target: T1, FGF2 (Homo sapiens, UniProt P09038); experiment: Thermal shift assay (TSA) of FGFR1/FGF2 complex, FGF2 melting peak; type: binding
T1 construct: made in house; host or cells: Escherichia coli BL21 (DE3) Star
From the text: TSA was utilized to biophysically characterize the recombinant human FGFR1/FGF2 complex in the presence or absence of compounds. The assay functions by protein denaturation over a temperature gradient. During protein unfolding, exposed hydrophobic regions bind a dye and fluoresce due to solvent relaxation effects. Changes in the melting temperature of the protein complex in the presence of each compound were monitored and compounds were screened/ranked using this method.
One Shot BL21 (DE3) Star Escherichia coli competent cells (Thermo Fisher) were transformed with a relevant FGF2 plasmid and inoculated onto Ampicillin Luria Broth/Agar plates. Two hundred milliliter portions of Terrific Broth starter cultures were used to inoculate 9 L cultures with ampicillin at a concentration of 100 μg/mL. Cultures were grown to an O.D.600 near 1.0 at 37° C., and induced with IPTG overnight at 18° C. The cells were harvested at 7000 RPM in rotor 6000 for 5 min at 4° C. and stored at −80° C. Bacterial pellets were resuspended in 25 mM Hepes-NaOH, pH 7.5, 250 mM NaCl, and the cells were lysed in 3 cycles on/off for 3 minutes each at 4° C. via sonication. After centrifugation for 30 minutes at 16,000 RPM at 4° C., the isolated pellets were discarded, and the supernatant was filtered supernatant through a […] PES filter using 100 mL superloop. The lysate was purified over a 5 mL S column by washing the column with Lysis buffer for 5 CV then eluting using gradient from 250 mM to 1 M NaCl over 20 CV. The fractions containing FGF2 were identified via SDS-PAGE gel (Expected Mw: 15.2 KDa). The protein was collected and diluted in 20 mM Tris-HCl pH 8.0, 25 mM MgCl2 buffer in order to reach a NaCl concentration of 150 mM. The purified FGF2 was concentrated and stored at −80° C.
Thawed aliquots of purified FGF2 (1.0 mg/mL) and FGFR1 (1.6 mg/mL) proteins were mixed in a 1:1 molar ratio (64 μM: 64 μM) on ice for 30 min at 4° C. and plated prior to the thermal shift assay (TSA). Complex formation was verified by loading the complexed material on a size exclusion column (superdex 300GL S200) and observing the monodisperse peak corresponding to the FGF2/FGFR1 complex (˜40 kDa). Compounds of the invention were screened in dose response format (0-100 μM) with the FGF2/FGFR1 complex in triplicates. FGF2/FGFR1/compound complexes were mixed in a 1000:1 ratio with Sypro Orange dye (Sigma-Aldrich). The samples were processed using a Bio-Rad CFX C96 Touch quantitative polymerase chain reaction and run using the FRET assay settings with a heating ramp of 0.3° C./s cycling from 4 to 100° C. Data analysis was performed using the Bio-Rad CFX Manager Software (version 3.1, Bio-Rad) and changes in the melting temperature (Tm) of the complex in the presence of each compound were monitored. The results are shown in Tables 2 and 3 below and also in FIG. 1 (for Compound 2).

[2] = biological target: FGFR1 (Homo sapiens, UniProt P11362); experiment: Phosphorylation of FGFR1 in cells expressing FGFR1 in the presence of submaximal FGF-2; type: cell-based; details: increasing concentrations, submaximal concentration of FGF-2; FIG. 2
FGFR1, sequence (P11362 22-822): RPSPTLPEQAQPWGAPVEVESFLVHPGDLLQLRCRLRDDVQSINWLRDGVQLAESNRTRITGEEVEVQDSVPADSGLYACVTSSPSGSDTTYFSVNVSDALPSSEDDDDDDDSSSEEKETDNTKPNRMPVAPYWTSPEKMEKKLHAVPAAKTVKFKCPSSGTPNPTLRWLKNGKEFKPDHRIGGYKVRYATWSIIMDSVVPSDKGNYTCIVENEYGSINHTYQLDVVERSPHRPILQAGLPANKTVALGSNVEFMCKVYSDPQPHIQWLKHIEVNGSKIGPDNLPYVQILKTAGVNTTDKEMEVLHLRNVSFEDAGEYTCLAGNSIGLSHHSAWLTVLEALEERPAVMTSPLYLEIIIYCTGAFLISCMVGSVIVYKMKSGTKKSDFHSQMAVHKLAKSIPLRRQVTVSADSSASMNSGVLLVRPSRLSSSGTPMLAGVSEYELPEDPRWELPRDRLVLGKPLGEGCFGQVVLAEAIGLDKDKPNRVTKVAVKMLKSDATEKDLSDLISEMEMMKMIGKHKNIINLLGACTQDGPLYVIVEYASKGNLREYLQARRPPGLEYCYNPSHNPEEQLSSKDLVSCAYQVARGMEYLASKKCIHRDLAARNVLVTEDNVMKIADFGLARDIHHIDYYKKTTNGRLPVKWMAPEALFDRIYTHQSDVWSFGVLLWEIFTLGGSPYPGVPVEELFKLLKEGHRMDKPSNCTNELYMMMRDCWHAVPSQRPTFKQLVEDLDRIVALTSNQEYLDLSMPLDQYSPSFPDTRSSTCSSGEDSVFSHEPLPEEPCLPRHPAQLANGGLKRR
FGFR1, sequence (P09038 143-288 partner): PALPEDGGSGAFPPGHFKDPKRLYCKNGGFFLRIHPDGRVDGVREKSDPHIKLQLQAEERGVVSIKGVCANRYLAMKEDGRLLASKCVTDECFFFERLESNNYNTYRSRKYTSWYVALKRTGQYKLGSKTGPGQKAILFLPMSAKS
Method: Cells expressing FGFR1 were exposed to increasing concentrations of Compound 2 in the presence of a submaximal concentration of FGF-2. Cells were then lysed, and the relative phosphorylation of FGFR1 was assessed using antibodies to non-phosphorylated and phosphorylated FGFR1. The results are shown in FIG. 2, which is a graph showing the phosphorylation of FGFR1 in the presence of increasing concentrations of Compound 2.

[3] = Body weight pre- and post-MCAO; type: in vivo; details: rat MCAO; 10 mg/kg i.v. on Day 1, 2 and 3 after MCAO
Method: The rats were randomly assigned into two groups of ten each. Each group was injected intravenously (i.v.) with 2 ml/kg Compound 2 at 10 mg/kg or vehicle (18% Cremophor RH40 and 10% DMSO in 5% dextrose solution (D5WW)) on Day 1, 2, and 3 after MCAO. Day 0 is the day of the MCAO, and the days after the MCAO are numbered consecutively (Day 1, Day 2, Day 3, etc.) D-pre represents the day prior to the MCAO.
Typically, after an initial rapid rise, there is a continued slow, steady, and partial improvement in sensorimotor function (as measured by forelimb and hindlimb placing and body swing tests) during the first three weeks after stroke. […] The normal rise in body weight following surgery was not affected by treatment with Compound 2.

T1 sequence (P09038 156-288 limits assumed): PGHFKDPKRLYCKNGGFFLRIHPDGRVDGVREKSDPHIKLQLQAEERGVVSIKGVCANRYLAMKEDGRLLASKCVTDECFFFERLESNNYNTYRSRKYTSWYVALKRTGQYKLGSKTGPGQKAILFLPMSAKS
T1 sequence (P11362 142-365 partner limits assumed): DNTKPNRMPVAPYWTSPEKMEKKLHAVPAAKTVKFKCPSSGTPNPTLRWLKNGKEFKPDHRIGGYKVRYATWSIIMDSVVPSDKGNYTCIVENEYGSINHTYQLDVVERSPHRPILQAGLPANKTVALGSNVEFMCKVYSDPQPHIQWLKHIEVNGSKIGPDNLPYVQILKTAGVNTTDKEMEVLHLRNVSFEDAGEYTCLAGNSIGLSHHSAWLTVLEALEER

ΔTm at 2 µM ([1]; 2 μM compound): -2.5 °C
ΔTm at 10 µM ([1]; 10 μM compound): -3 °C
phosphorylation of FGFR1 [2]: augmented the effects of FGF-2
SMILES: CCN(CC)c1ccc2c(c1)CCN(C1CCN(C(c3ccccc3)c3ccccc3)CC1)C2 [Compound 2, 2-(1-benzhydrylpiperidin-4-yl)-N,N-diethyl-1,2,3,4-tetrahydroisoquinolin-6-amine]
rise in body weight following surgery [3]: not affected
